In assay [1] the test system is human umbilical cord mesenchymal stem cells. The settings on record: ethionamide 50 or 100 μM; FIG. 4A. The protocol: (§1) First, a 3 to 4 cm piece of umbilical cord tissue was fragmented, and treated with a collagenase solution (Gibco, USA) for 60 to 90 minutes to digest an extracellular matrix, followed by digestion with 0.25% trypsin (Gibco, USA) for 30 minutes at 37° C. Subsequently, cells were obtained by adding fetal bovine serum (FBS; Biowest, USA) to the resulting product, and then performing centrifugation at 1000×g for 10 minutes, and then cultured using Minimum Essential Media (MEM; Gibco, USA) supplemented with 10% FBS and 50 μg/ml gentamycin (Gibco, USA) at 37° C. in a 5% CO2 atmosphere, and thus mesenchymal stem cells at passage 5 or 6 were used for an experiment.
(§2) 6×10^3 cells/cm 2 of the human umbilical cord mesenchymal stem cells prepared according to the method of Example 1 were seeded in a cell culture container, and simultaneously, ethionamide was treated at a concentration of 50 μM, 100 μM or 150 μM, followed by culturing for 72 hours.
To verify whether the expression level of a paracrine factor of mesenchymal stem cells is changed by ethionamide treatment, the mesenchymal stem cells were treated with ethionamide at 50 or 100 μM, and then expression levels of a brain-derived neurotrophic factor (BDNF), a vascular endothelial cell growth factor (VEGF), insulin-like growth factor-1 (IGF-1) and a hepatocyte growth factor (HGF), which are known as paracrine factors, were measured.

The test system is the same in assay [2]. The settings on record: ethionamide 50 or 100 μM; FIG. 4B. The protocol: as §1, §2
Subsequently, the mesenchymal stem cells were treated with ethionamide by the same method as described above, and mRNA expression levels of antioxidation-related factors, such as HO-1, NQO1, GCLC and GCLM were measured.

Take `CCc1cc(C(N)=S)ccn1` [ethionamide, 2-ethylpyridine-4-carbothioamide]: in assay [1], the BDNF expression level entry is reported as “increases in proportion to the treated concentration of ethionamide”, the HGF expression level entry is “increases in proportion to the treated concentration of ethionamide”, the IGF-1 expression level result is “increases in proportion to the treated concentration of ethionamide” and the VEGF expression level result is listed as “increases in proportion to the treated concentration of ethionamide”. Further, in assay [2], the “GCLC mRNA expression level” value is “significantly increases in proportion to the treated concentration of ethionamide”, the “GCLM mRNA expression level” value was “significantly increases in proportion to the treated concentration of ethionamide”, the “HO-1 mRNA expression level” value is on record as “significantly increases in proportion to the treated concentration of ethionamide” and the “NQO1 mRNA expression level” value is “significantly increases in proportion to the treated concentration of ethionamide”.

Values taken from US11946070B2, “Method of reinforcing efficacy of stem cells using ethionamide” (SAMSUNG LIFE PUBLIC WELFARE FOUNDATION, priority 2019, dated 2024).
